# Source: US20250057764A1, “COMPOSITIONS, METHODS AND SYSTEMS FOR AEROSOL DRUG DELIVERY” (ASTRAZENECA AB, priority 2021, published 2025)
# Counter-ions that a name gives are not always drawn. Like-named read-outs stand apart in the source and are kept apart here.
# Experiments:
# [1] = Particle size distribution by laser diffraction; format: physicochemical
# From the text: When referred to herein, the term “optical diameter” indicates the size of a particle as measured by the Fraunhofer diffraction mode using a laser diffraction particle size analyzer equipped with a dry powder dispenser (e.g., Sympatec GmbH, Clasthal-Zellerfeld, Germany).
# Suspending particles were manufactured by spray drying an emulsion of PFOB (perfluorooctyl bromide) and water stabilized by DSPC (1,2-Distearoyl-sn-Glycero-3-Phosphocholine). Detailed preparation procedures have been documented previously. The particle size distribution of the suspending particles was determined by laser diffraction.
# Active agent particles formed of budesonide, 16,17-(butylidenebis(oxy))-11,21-dihydroxy-, (11-β,16-α)-pregna-1,4-diene-3,20-dione, were formed by micronizing budesonide using a jet mill. The particle size distribution of the budesonide (BD) was determined by laser diffraction.
# [2] = Aerodynamic particle size distribution by NGI (FPF, FPD, MMAD) of HFC-152a co-suspension MDIs; format: physicochemical
# From the text: (§1) In the context of a composition containing or providing respirable aggregates, particles, drops, etc., such as compositions described herein, the term “fine particle dose” or “FPD” refers to the dose, either in total mass or fraction of the nominal dose or metered dose, that is within a respirable range. The dose that is within the respirable range in measured in vitro to be the sum of the dose delivered at stages 3 through Micro Orifice Collector in a Next Generation Impactor operated at a flow rate of 30 l/min.
# (§2) In the context of a composition containing or providing respirable aggregates, particles, drops, etc., such as compositions described herein, the term “fine particle fraction” or “FPF” refers to the proportion of the delivered material relative to the delivered dose (i.e. the amount that exits the actuator of a delivery device, such as an MDI) that is within a respirable range. The amount of delivered material within the respirable range is measured in vitro as the sum of the material delivered at stages 3 through Micro Orifice Collector in a Next Generation Impactor operated at a flow rate of 30 l/min.
# The mixture is agitated to facilitate powder wetting and then transferred to a pressure vessel where the suspension is mixed. Valves comprised of 50 uL metering chambers (BK357, Bespak, King's Lynn, UK) are crimped onto fluorinated ethylene polymer (FEP) coated aluminum cans (Presspart, Blackburn, UK) and the suspension is then pressure filled through the valve.
# Metered dose inhalers containing a triple co-suspension composition comprising glycopyrrolate, budesonide, and formoterol active agent particles were prepared, with each type of active agent particle being provided as a micronized, crystalline API material.
# [3] = cited from earlier work; for Latent Heat @ Boiling Point: at boiling point
# [4] = Aerodynamic particle size distribution by NGI after storage of the MDI (stability); format: physicochemical; settings: active in BGF-152a
# From the text: as §1, §2
# The fine particle fraction (FPF) present in the delivered dose upon actuation of an MDI containing budesonide, formoterol, or glycopyrrolate active agent particles and phospholipid particles was measured following storage of the MDI under various temperature and relative humidity conditions for varied periods of time. […]
# [5] = active in BGF-152a MDI, Example 2
smiles,measurement,setting,value
"CC(C)(C)NCC(O)c1ccc(O)c(CO)c1 (stereo not drawn) [AB, α1 [(tert-butylamino)methyl]-4-hydroxy-m xylene-α,α′-diol sulfate]",Optical diameter / size of 50% by volume of the particles (smaller than),[1],smaller than 1.5 μm
same,Optical diameter / size of 90% by volume of the particles (smaller than),[1],smaller than 3.3 μm
same,"FPD, <6.4 μm (μg/act)",[2]; active in BDA-152a MDI,28.68 ± 0.61 μg/act
same,"FPF, <6.4 μm (%)",[2]; active in BDA-152a MDI,31 ± 1%
same,MMAD (μm),[2]; active in BDA-152a MDI,4.36 ± 0.06 μm
FC=CC(F)(F)F [HFO-1234ze],Liquid Density @ 20° C.,[3],1.18 g/mL
same,Liquid Viscosity @ 20° C.,[3],0.206 mPa · S
same,Surface Tension @ 20° C.,[3],8.9 mN/m
same,Vapor Pressure @ 20° C.,[3],427 kPa
same,Latent Heat @ 25° C.,[3],166.8 kJ/kg
same,Water Solubility in Propellant,[3]; @20,225@20 ppm
same,Latent Heat @ Boiling Point,[3],195.43 kJ/kg
"CC(F)F [HFC-152a, 1,1-Difluoroethane]",Liquid Density @ 20° C.,[3],0.91 g/mL
same,Liquid Viscosity @ 20° C.,[3],0.171 mPa · S
same,Surface Tension @ 20° C.,[3],10.4 mN/m
same,Vapor Pressure @ 20° C.,[3],510 kPa
same,Latent Heat @ 25° C.,[3],279.1 kJ/kg
same,Water Solubility in Propellant,[3]; @25,2100@25 ppm
same,Latent Heat @ Boiling Point,[3],318.4 kJ/kg
"C=C(F)C(F)(F)F [HFO-1234yf, 2,3,3,3-Tetrafluoropropene]",Liquid Density @ 20° C.,[3],1.11 g/mL
same,Liquid Viscosity @ 20° C.,[3],0.164 mPa · S
same,Surface Tension @ 20° C.,[3],6.8 mN/m
same,Vapor Pressure @ 20° C.,[3],592 kPa
same,Latent Heat @ 25° C.,[3],145.4 kJ/kg
same,Water Solubility in Propellant,[3]; @24,200@24 ppm
same,Latent Heat @ Boiling Point,[3],180.5 kJ/kg
"FCC(F)(F)F [HFA-134a, 1,1,1,2-tetrafluoroethane]",Liquid Density @ 20° C.,[3],1.23 g/mL
same,Liquid Viscosity @ 20° C.,[3],0.211 mPa · S
same,Surface Tension @ 20° C.,[3],8.09 mN/m
same,Vapor Pressure @ 20° C.,[3],570 kPa
same,Latent Heat @ 25° C.,[3],177.7 kJ/kg
same,Water Solubility in Propellant,[3]; @25,1100@25 ppm
same,Latent Heat @ Boiling Point,[3],216.7 kJ/kg
"FC(C(F)(F)F)C(F)(F)F [HFA-227ea, 1,1,1,2,3,3,3-Heptafluoropropane]",Liquid Density @ 20° C.,[3],1.41 g/mL
same,Liquid Viscosity @ 20° C.,[3],0.267 mPa · S
same,Surface Tension @ 20° C.,[3],7.50 mN/m
same,Vapor Pressure @ 20° C.,[3],390 kPa
same,Latent Heat @ 25° C.,[3],110.97 kJ/kg
same,Water Solubility in Propellant,[3]; @25,610@25 ppm
same,Latent Heat @ Boiling Point,[3],131.4 kJ/kg
"COc1ccc(CC(C)NCC(O)c2ccc(O)c(NC=O)c2)cc1.O=C(O)/C=C/C(=O)O (racemic) [FF, (±)-2-hydroxy-5-[(1RS)-1-hydroxy-2-[[(1RS)-2-(4-methoxyphenyl)-1-methylethyl]-amino]ethyl]formanilide fumarate]",Optical diameter / size of 50% by volume of the particles (smaller than),[1],smaller than 1.6 μm
same,Optical diameter / size of 90% by volume of the particles (smaller than),[1],smaller than 3.9 μm
"C[N+]1(C)CCC(OC(=O)C(O)(c2ccccc2)C2CCCC2)C1.[Br-] (centres unmarked) [GP, Pyrrolidinium, 3-((cyclopentylhydroxyphenylacetyl)oxy)-1,1-dimethyl-, bromide]",Optical diameter / size of 50% by volume of the particles (smaller than),[1],smaller than 2.1 μm
same,Optical diameter / size of 90% by volume of the particles (smaller than),[1],smaller than 5 μm
same,"FPD, <6.4 μm (μg/act)",[2]; [5],3.69 ± 0.36 μg/act
same,"FPF, <6.4 μm (%)",[2]; [5],49 ± 3%
same,"FPD, <6.4 μm (μg/act)",[2]; active in GFF-152a MDI,3.56 ± 0.18 μg/act
same,"FPF, <6.4 μm (%)",[2]; active in GFF-152a MDI,48 ± 1%
same,MMAD (μm),[2]; active in GFF-152a MDI,3.43 ± 0.07 μm
same,"FPD, <6.4 μm (μg/act)",[4]; 1 month 25° C./60% RH,3.02 ± 0.08 μg/act
same,"FPF, <6.4 μm (%)",[4]; 1 month 25° C./60% RH,45 ± 1%
same,"FPD, <6.4 μm (μg/act)",[4]; 1 month 40° C./75% RH,3.18 ± 0.15 μg/act
same,"FPF, <6.4 μm (%)",[4]; 1 month 40° C./75% RH,46 ± 1%
same,"FPD, <6.4 μm (μg/act)",[4]; 3 month 25° C./60% RH,3.42 ± 0.08 μg/act
same,"FPF, <6.4 μm (%)",[4]; 3 month 25° C./60% RH,49 ± 1%
same,"FPD, <6.4 μm (μg/act)",[4]; 3 month 40° C./75% RH,3.62 ± 0.08 μg/act
same,"FPF, <6.4 μm (%)",[4]; 3 month 40° C./75% RH,50 ± 1%
same,"FPD, <6.4 μm (μg/act)",[4]; 6 month 25° C./60% RH,3.50 ± 0.07 μg/act
same,"FPF, <6.4 μm (%)",[4]; 6 month 25° C./60% RH,50 ± 1%
same,"FPD, <6.4 μm (μg/act)",[4]; 6 month 40° C./75% RH,3.44 ± 0.27 μg/act
same,"FPF, <6.4 μm (%)",[4]; 6 month 40° C./75% RH,49 ± 2%
same,"FPD, <6.4 μm (μg/act)",[4]; 12 month 25° C./60% RH,3.46 ± 0.05 μg/act
same,"FPF, <6.4 μm (%)",[4]; 12 month 25° C./60% RH,48 ± 2%
same,"FPD, <6.4 μm (μg/act)",[4]; Initial,3.18 ± 0.16 μg/act
same,"FPF, <6.4 μm (%)",[4]; Initial,47 ± 2%
